Test results published in paper PMC9368227, “Investigation of Radiotracer Metabolic Stability In Vitro with CYP-Overexpressing Hepatoma Cell Lines” (Cells, 2022).

How the values were obtained:
[1] = tested on: HepG2 CYP1A2; assay: Competitive coincubation of [18F]1 with competitors, HepG2 CYP1A2; conditions: 1 h; competitor 1 or 10 µM
Method: (§1) Radio thin-layer chromatography (radio-TLC) was carried out on reversed-phase TLC plates (ALUGRAM RP-18W/UV254 from Macherey-Nagel, Düren, Germany) with a mobile phase of 45% ACN in water containing 0.1% trifluoroacetic acid. The samples (2 µL) were spotted onto the TLC plate. The line of origin and the front line were labeled with 1/5 of the sample activity concentration. To track the Rf value of the intact radiotracer, each TLC was spotted with the intact tracer as reference in the middle. Detection of the activity signals was achieved after 10–30 min development on radioluminographic imaging plates (FUJIFILM, Tokyo, Japan) and subsequent readout with Fuji BAS 5000® or Amersham™ Typhoon™ from GE Healthcare (Uppsala, Sweden). The resulting chromatographic profile was analyzed and integrated with the help of AIDA Image Analysis Software (version 5.1). For data depiction, the fraction of each species (intact radiotracer, metabolite, [^18F]fluoride) was plotted.
(§2) Incubations were conducted for up to 2 h in a 96-well plate in KHB with a total incubation volume of 50 µL and an ethanol concentration of 0.4%. For the incubation with radiotracers, an activity of 100–200 kBq/well at the start of the experiment was used.
(§3) Our last interest within this study was to test if the tracer itself could function as an indicator for the conversion of other substrates acting via inhibition of or competition with the CYP enzymes. In this regard, alternative substrates were added to the incubation mixtures with [^18F]1. The investigated substrates covered testosterone, caffeine, progesterone, compound 3, tebufelone, and RWJ63556 [44] (10 µM for all substances). Furthermore, the influence of testosterone on the metabolic turnover of [^18F]1 was investigated over a concentration range of 1–50 µM.
Figure 7 Coincubation of [^18F]1 and different competitors with (A) HepG2 CYP1A2 and (B) HepG2 CYP2C19. […] Each competitor/inhibitor was incubated with [^18F]1 for 1 h followed by radio-TLC analysis. Activity concentrations of 94–197 kBq/well (1.9–3.9 MBq/mL) were used at start of experiment, which correspond to a concentration of 120–125 nM. Statistical analysis performed with Dunnett’s multiple comparison (post hoc test) according to the intact tracer amount (* p < 0.05; *** p < 0.001; **** p < 0.0001; n = 4).

[2] = tested on: HepG2 CYP2C19; assay: Competitive coincubation of [18F]1 with competitors, HepG2 CYP2C19; conditions: 1 h, competitor 10 µM
Method: as §1, §2, §3
Figure 7 Coincubation of [^18F]1 and different competitors with (A) HepG2 CYP1A2 and (B) HepG2 CYP2C19. […] Each competitor/inhibitor was incubated with [^18F]1 for 1 h followed by radio-TLC analysis. […]

[3] = tested on: HepG2 CYP1A2; assay: Radiotracer metabolic stability, CYP1A2-overexpressing HepG2 cells; format: in vitro ADME, human; conditions: HepG2 CYP1A2, up to 2 h; radio-TLC
Method: (§4) CYP-overexpressing human hepatocellular carcinoma cells (HepG2) were previously generated on the basis of subcloning human CYP1A2 [18], CYP2C19 [20], and CYP3A4 [21] cDNA into a lentiviral expression vector. The cDNA expression in the resulting vector was controlled by the human cytomegalovirus (CMV) promoter. The lentivirus expression vectors were used to produce recombinant lentivirus particles according to standard methods to infect HepG2 cells. Infected cells were selected with 3 µg/mL blasticidin for CYP2C19 and CYP3A4 and 500 µg/mL zeocin for CYP1A2 overexpression 48 h after infection. Within 3–4 weeks, antibiotic-resistant cell colonies were picked to obtain single cell-derived HepG2 clones. For more detailed information on the generation procedure of CYP-overexpressing HepG2 cells, see Steinbrecht et al..
(§5) HepG2 cells were cultured in DMEM GlutaMax (Gibco, Paisley, UK) with 10% fetal calf serum (FCS) and with selective antibiotics (penicillin/streptomycin for wildtype, Zeocin (InvivoGen, San Diego, CA, USA) for CYP1A2, and Blasticidin (Gibco, Carlsbad, CA, USA) for CYP2C19 and CYP3A4 cultures). […] Cell density was determined with a cell counter (CASY® Model TT from Schärfe System, Reutlingen, Germany). […]
Incubations with radiotracer compounds were conducted, on the one hand, with radioactive ^18F-labeled compounds alone (time dependency) and, on the other hand, in the presence of 50 µM nonradioactive reference (carrier addition). For the investigation of a time-dependent metabolite formation, 2 µL aliquots were withdrawn from the supernatant, directly spotted onto the TLC plate, and analyzed as described above. […]
UPLC–MS analyses were performed to verify the degradation behavior of the test compounds and to gain insights into the identity of the formed metabolites. […] Additionally, incubations with the nonradioactive references were carried out with 100 nM or 50 µM (according to the carrier-added samples) and analyzed. UPLC–MS/MS was performed using System 2 (55% isocratic elution for quantification of intact compound, or 25–75% gradient for nonradioactive metabolite analysis). […]

[4] = tested on: HepG2 CYP2C19; assay: Radiotracer metabolic stability, CYP2C19-overexpressing HepG2 cells; format: in vitro ADME, human; conditions: radio-TLC
Method: as §4
HepG2 cells were cultured in DMEM GlutaMax (Gibco, Paisley, UK) with 10% fetal calf serum (FCS) and with selective antibiotics (penicillin/streptomycin for wildtype, Zeocin (InvivoGen, San Diego, CA, USA) for CYP1A2, and Blasticidin (Gibco, Carlsbad, CA, USA) for CYP2C19 and CYP3A4 cultures). As a negative control, cultures of CHO cultivated in Ham’s F-12 medium (Gibco) with 10% FCS and 2 mM glutamine were added for the radiotracer experiments. Cells were handled under a laminar flow hood (Thermo Scientific^TM Safe 2020, Langenselbold, Germany) and were split once or twice a week by trypsinization. Cell cultures were stored horizontally in a humidified incubator (Heracell240i) at 37 °C and 5% CO2. During the time of experimental work, the utilized cell lines were regularly checked for mycoplasma. Cells were seeded in duplicates into a 96-well plate (CellStar®) with a density of 3 × 10^5 cells/well and cultured until the next day at 37 °C and 5% CO2. Cell density was determined with a cell counter (CASY® Model TT from Schärfe System, Reutlingen, Germany). Before the addition of substrates, cells were washed twice with Krebs–Henseleit buffer (KHB). The HEPES-supplemented Krebs–Henseleit buffer (pH 7.4, KHB) was freshly prepared using HEPES (5.95 g/L), D-glucose (2.0 g/L), magnesium sulfate (0.141 g/L), potassium dihydrogenphosphate (0.16 g/L), potassium chloride (0.35 g/L), sodium chloride (6.9 g/L), calcium chloride dihydrate (0.373 g/L), and sodium bicarbonate (2.1 g/L), followed by adjustment to pH 7.4 with NaOH. The utilized substances within this study were neither found (see Supplementary Materials, Figure S14) nor reported to be cytotoxic within the utilized concentration range and incubation duration.
Incubations with radiotracer compounds were conducted, on the one hand, with radioactive ^18F-labeled compounds alone (time dependency) and, on the other hand, in the presence of 50 µM nonradioactive reference (carrier addition). For the investigation of a time-dependent metabolite formation, 2 µL aliquots were withdrawn from the supernatant, directly spotted onto the TLC plate, and analyzed as described above. The same procedure was performed for carrier-added samples.
UPLC–MS analyses were performed to verify the degradation behavior of the test compounds and to gain insights into the identity of the formed metabolites. Using radiotracer incubation samples, 40 µL aliquots of the carrier-added incubations were withdrawn followed by addition of 160 µL of ACN and centrifugation (14,000 rpm (18,800–20,800× g), 4 °C, 5 min). Samples were frozen at −20 °C, and activity was allowed to decay before further mass-spectrometric analyses. Additionally, incubations with the nonradioactive references were carried out with 100 nM or 50 µM (according to the carrier-added samples) and analyzed. UPLC–MS/MS was performed using System 2 (55% isocratic elution for quantification of intact compound, or 25–75% gradient for nonradioactive metabolite analysis). The MRM mode was optimized with a solution of respective reference compounds diluted in eluent. […]

[5] = tested on: HepG2 CYP3A4; assay: Radiotracer metabolic stability, CYP3A4-overexpressing HepG2 cells; format: in vitro ADME, human; conditions: HepG2 CYP3A4; radio-TLC
Method: as §4
as §5, with “cultures). As a negative control, cultures of CHO cultivated in Ham’s F-12 medium (Gibco) with 10% FCS and 2 mM glutamine were added for the radiotracer experiments.” for “cultures).”

[6] = tested on: HepG2 cells; assay: Testosterone control incubation (conversion to androstenedione), LC-MS/MS; conditions: 2.5 µM testosterone; within 2 h; 3 × 10^5 cells/well in 96-well plate
Method: Testosterone (SIGMA-ALDRICH, Taufkirchen, Germany) was dissolved in pure ethanol. Control incubations with testosterone were carried out for 2 h with 2.5 µM testosterone, 0.05% ethanol, and a total volume of 150 µL in the cavities of a 96-well plate. The supernatant was prepared and analyzed by UPLC–MS/MS (System 2; 45% isocratic elution). Testosterone was monitored at transitions for [M + H]^+ 289.24 > 97.08 and 289.24 > 109.05 with cone voltage 52 V and collision energy 20 V, while the CYP-mediated metabolite androstenedione was monitored at transitions for [M + H]^+ 287.22 > 97.08 (collision energy 18 V) and 287.22 > 109.05 (collision energy 20 V) with a cone voltage of 50 V each.

Compound	Effect of coincubation on metabolic profile / intact [18F]1 (in words) [1]	Increase of intact tracer [18F]1 versus incubation without additional substances [2]	Metabolic turnover / stability of radiotracer (in words) [3]	Defluorination ([4]; 1 h incubation)	Metabolic turnover / stability of radiotracer (in words) ([4]; HepG2 CYP2C19, up to 2 h)	Summarized percentage of metabolites [5]	Effect of coincubation on intact [18F]1 amount (in words) ([2]; testosterone 1–50 µM)	Testosterone consumed [6]
CC(=O)[C@H]1CC[C@H]2[C@@H]3CCC4=CC(=O)CC[C@]4(C)[C@H]3CC[C@]12C [progesterone]	no change in the metabolic profile	twofold						
Cc1ccc(-c2cc(CC[18F])nn2-c2ccc(S(C)(=O)=O)cc2)cc1 [[^18F]3, 3-([^18F]fluoroethyl)-1-[4-(methylsulfonyl)phenyl]-5-(p-tolyl)-1H-pyrazole]			pronounced slower degradation	only noted during incubation with HepG2 CYP2C19	pronounced slower degradation	below 3%		
C[C@]12CC[C@H]3[C@@H](CCC4=CC(=O)CC[C@@]43C)[C@@H]1CC[C@@H]2O [testosterone]	no change in the metabolic profile						slight increase in the amount of intact radiotracer	more than 50%
